Laboratory results published in patent publication US20170066759A1, “AROMATIC 5-MEMBERED HETEROCYCLIC DERIVATIVE HAVING TRPV4-INHIBITING ACTIVITY” (Shionogi & Co., Ltd., priority 2012, published 2017).
Like-named read-outs stand apart in the source and are kept apart here.

Tests used:
[1] = target: T1, human TRPV4 (hTRPV4/CHO cells) (Homo sapiens, UniProt Q9HBA0); assay: Test Example 4: TRPV4 inhibitory activity (Ki value), 4α-PDD stimulation, Fluo-3 calcium fluorescence (FDSS 3000); assay type: cell-based
T1 construct: expressed in transfected cells; host or cells: CHO-K1
Experimental: TRPV4 Inhibitory Activity (Ki Value)
For each compound, TRPV4 inhibitory activity was measured using cells.
(Method) The procedures of evaluating TRPV4 inhibitory activity of a compound are as follows.
(1) TRPV4 inhibitory activity was measured using CHO-K1 cells stably expressing human TRPV4 (hTRPV4/CHO cells).
(2) Cells were subcultured using the MEM-α medium (SIGMA M4526: 500 ml), FBS (HyCloneSH30070.03: 10%), L-Glutamine 200 mmol/L (GIBCO: 4 mmol/L), P/S (nacalai tesque: 1%), G418 (nacalai tesque: 1 mg/mL).
(3) The 96-well plates which hTRPV4/CHO cells were seeded at densities of 2×10^4 cells/well in the culture medium in the day before the experimental day, and cultured in a CO2 incubator in the presence of 5% CO2 at 37° C. for 24 hours was used as assay plates.
(4) Cells were washed with assay buffer (Hank's Balanced Salt Solution 9.8 g, 1 mol/L HEPES (pH7.5), 250 mmol/L probenecid).
(5) Fluo-3, fluorescent dye for Ca influx assay was added to each well, then the assay plate was incubated in a CO2 incubator in the presence of 5% CO2 at 37° C. for one hour (final conc.; 5 μmol/L Fluo-3).
(6) The assay plate was washed with the assay buffer, and the buffer was remained at 30 μL/well. Then the assay plate was incubated for 10 min at 37° C.
(7) 20 μL of diluted compound solution was added to each well of assay plate, and mixed with built-in Pipette and Mixer of the fluorescence analysis system FDSS 3000 (Hamamatsu Photonics).
(8) 50 μL of 4α-PDD solution (concluding 0.1% Pluronic F-127) was applied to each well of assay plate and mixed.
(9) The fluorescent intensity was measured by FDSS 3000 for 8 min from the point of time addition the compound solution, at Ex 480 nm, Em 540 nm wavelength.
TRPV4 inhibitory activity (Ki value) of a compound was calculated according to the following procedure.
(10) In the presence of the compound, the difference between maximal and minimal of fluorescent intensity value for 8 min from just before addition of 4α-PDD solution was calculated, and it was referred as Max-Min value. Max-Min value of the Ruthenium Red at 10 μM was defined as 100% inhibitory activity, Max-Min value in the absence of the compound was defined as 0% inhibitory activity. TRPV4 inhibitory activity of the compound was calculated by the following formula.
(1−(Max−Min value of the compound−100% inhibitory activity)/(0% inhibitory activity−100% inhibitory activity))×100
(11) By the following formula, inhibitory activity was calculated at 10 points with three fold serial dilution, in the final concentration of the compound from 10 μmol/L to 0.5 nmol/L. The IC50 value was calculated by dose-response curve.
100−[(fluorescent intensity in the presence of the compound−fluorescent intensity of back ground)/(total fluorescent intensity−fluorescent intensity of back ground)]×100
(12) In the presence of the compound, activity of 4α-PDD was measured at 9 points with three fold serial dilution from 20 μmol/L. Activity of 4α-PDD was calculated by the following formula.
(Max−Min value of the each 4α-PDD concentration−0% activity)/(100% activity−0% activity))×100
(13) Effective activity was calculated in 4α-PDD the above. The EC50 value was calculated by dose-response curve.
(14) The Ki value of a compound was calculated by the following formula.
Ki=IC50 value/1+([A]/EC50)
[A]: Concentration of agonist (nmol/L)

[2] = target: T1, human TRPV4 (hTRPV4/CHO cells); assay: Test Example 1: TRPV4 inhibitory activity (IC50 value), 4α-PDD stimulation, Fluo4 calcium fluorescence (FLIPR TETRA); assay type: cell-based; details: Test Example 1, 4α-PDD stimulation, read-out: Test 1 IC50
[3] = Test Example 4, 4α-PDD stimulation, read-out: Test 4 Ki

T1 sequence (Q9HBA0 whole entry): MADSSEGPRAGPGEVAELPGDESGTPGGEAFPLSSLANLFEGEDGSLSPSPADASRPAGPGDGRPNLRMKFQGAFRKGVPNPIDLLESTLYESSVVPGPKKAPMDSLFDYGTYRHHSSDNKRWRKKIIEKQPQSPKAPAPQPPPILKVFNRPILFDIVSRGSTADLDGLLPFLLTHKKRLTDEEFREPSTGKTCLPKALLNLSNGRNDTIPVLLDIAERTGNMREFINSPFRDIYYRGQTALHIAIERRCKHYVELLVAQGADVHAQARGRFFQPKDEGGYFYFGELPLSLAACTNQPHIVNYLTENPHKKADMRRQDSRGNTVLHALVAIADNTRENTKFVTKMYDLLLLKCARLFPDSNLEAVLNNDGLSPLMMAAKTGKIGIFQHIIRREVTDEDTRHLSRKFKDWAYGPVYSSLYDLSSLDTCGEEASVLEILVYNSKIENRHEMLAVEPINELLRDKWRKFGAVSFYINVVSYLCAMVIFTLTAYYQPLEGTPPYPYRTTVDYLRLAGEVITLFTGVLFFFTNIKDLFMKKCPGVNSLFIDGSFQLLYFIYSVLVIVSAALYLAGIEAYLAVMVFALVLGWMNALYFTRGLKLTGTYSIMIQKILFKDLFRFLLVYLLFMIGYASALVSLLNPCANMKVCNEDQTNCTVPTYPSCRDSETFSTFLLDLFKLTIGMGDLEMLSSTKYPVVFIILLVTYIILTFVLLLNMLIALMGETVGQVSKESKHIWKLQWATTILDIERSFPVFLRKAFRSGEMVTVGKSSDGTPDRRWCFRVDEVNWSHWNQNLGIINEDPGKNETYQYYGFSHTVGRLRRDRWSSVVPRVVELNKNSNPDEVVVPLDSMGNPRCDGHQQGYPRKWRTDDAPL

SMILES: Cc1nc(C)c(-c2csc(NC(=O)C3CCC(=O)C3)n2)s1 (racemic) [Compound I-37]
- Ki [1, 3]: 1000 to 3000 nM

SMILES: Cc1nc(C)c(-c2csc(NC(=O)C3CCC(NCC(F)(F)F)C3)n2)s1 (racemic) [Compound I-39]
- Ki [1, 3]: 100 to 1000 nM

SMILES: Cc1nc(C)c(-c2csc(NC(=O)[C@H]3CC[C@H](Cl)C3)n2)s1 (racemic) [Compound I-55]
- Ki [1, 3]: < 100 nM

SMILES: Cc1nc(C)c(-c2csc(NC(=O)[C@H]3CC[C@H](C#N)C3)n2)s1 (racemic) [Compound I-56]
- Ki [1, 3]: 100 to 1000 nM

SMILES: Cc1nc(C)c(-c2csc(NC(=O)[C@H]3CC[C@H](S(=O)(=O)CC(F)(F)F)C3)n2)s1 (racemic) [Compound I-57]
- Ki [1, 3]: 100 to 1000 nM

SMILES: Cc1nc(C)c(-c2csc(NC(=O)[C@H]3CC[C@H](SCC(F)(F)F)C3)n2)s1 (racemic) [Compound I-536]
- Ki [1, 3]: < 100 nM

SMILES: Cc1nc(C)c(-c2csc(NC(=O)C(C)(C)c3ccccc3)n2)s1 [Compound I-1]
- Ki [1, 3]: 100 to 1000 nM

SMILES: COC(C(=O)Nc1nc(-c2sc(C)nc2C)cs1)c1ccccc1 (stereo not shown) [Compound I-5]
- Ki [1, 3]: 100 to 1000 nM

SMILES: Cc1nc(C)c(-c2csc(NC(=O)C3CCCO3)n2)s1 (stereo not shown) [Compound I-6]
- Ki [1, 3]: 1000 to 3000 nM

SMILES: Cc1nc(C)c(-c2csc(NC(=O)Cc3ccccn3)n2)s1 [Compound I-7]
- Ki [1, 3]: 100 to 1000 nM

SMILES: Cc1nc(C)c(-c2csc(NC(=O)C(F)c3ccccc3)n2)s1 (stereo not shown) [Compound I-8]
- Ki [1, 3]: 100 to 1000 nM

SMILES: Cc1nc(C)c(-c2csc(NC(=O)CC(C)(C)C)n2)s1 [Compound I-9]
- Ki [1, 3]: 100 to 1000 nM

SMILES: Cc1nc(C)c(-c2csc(NC(=O)c3ccc(F)c(Cl)c3)n2)s1 [Compound I-10]
- Ki [1, 3]: 100 to 1000 nM

SMILES: Cc1nc(C)c(-c2csc(NC(=O)C(C)(C)Oc3ccc(Cl)cc3)n2)s1 [Compound I-11]
- Ki [1, 3]: 100 to 1000 nM

SMILES: Cc1nc(C)c(-c2csc(NC(=O)C(C)Oc3ccc(Cl)cc3)n2)s1 (stereo not shown) [Compound I-12]
- Ki [1, 3]: 100 to 1000 nM

SMILES: O=C(Cc1ccc(C(F)(F)F)cc1)Nc1nc(-c2sc(Cl)nc2Cl)cs1 [Compound I-15]
- Ki [1, 3]: 100 to 1000 nM

SMILES: O=C(Cc1ccc(Br)cc1)Nc1nc(-c2cnc(Cl)s2)cs1 [Compound I-16]
- Ki [1, 3]: 100 to 1000 nM

SMILES: Cc1nc(C)c(-c2csc(NC(=O)Cc3ccc(C(F)(F)F)c(F)c3)n2)s1 [Compound I-20]
- Ki ([1]; 4α-PDD, Fluo-3, Ki calculated from IC50 and EC50 of 4α-PDD, read-out: TRPV4 inhibitory activity (Ki value)): 34.4 nM
- Ki [1, 3]: < 100 nM

SMILES: Cc1nc(C)c(-c2csc(NC(=O)Cc3ccc(OC(F)(F)F)cc3)n2)s1 [Compound I-21]
- Ki [1, 3]: < 100 nM

SMILES: Cc1nc(C)c(-c2csc(NC(=O)Cc3ccc(SC(F)(F)F)cc3)n2)s1 [Compound I-22]
- Ki [1, 3]: < 100 nM

SMILES: C=C(C)c1ncc(-c2csc(NC(=O)Cc3ccc(S(=O)(=O)C(F)(F)F)cc3)n2)s1 [Compound I-25]
- Ki [1, 3]: 100 to 1000 nM

SMILES: Cc1nc(C)c(-c2csc(NC(=O)C3(O)CC3)n2)s1 [Compound I-26]
- Ki [1, 3]: 100 to 1000 nM

SMILES: Cc1nc(C)c(-c2csc(NC(=O)C3(C)CC3)n2)s1 [Compound I-28]
- Ki [1, 3]: 100 to 1000 nM

SMILES: Cc1nc(C)c(-c2csc(NC(=O)CC3CC3)n2)s1 [Compound I-33]
- Ki [1, 3]: 100 to 1000 nM

SMILES: Cc1nc(C)c(-c2csc(NC(=O)CCC(F)(F)F)n2)s1 [Compound I-38]
- Ki [1, 3]: < 100 nM

SMILES: Cc1nc(C)c(-c2csc(NC(=O)CC#N)n2)s1 [Compound I-40]
- Ki [1, 3]: 100 to 1000 nM

SMILES: Cc1nc(C)c(-c2csc(NC(=O)CCS(=O)(=O)c3ccccc3)n2)s1 [Compound I-41]
- Ki [1, 3]: 100 to 1000 nM

SMILES: COc1cc(CC(=O)Nc2nc(-c3sc(C)nc3C)cs2)cc(C(=O)Nc2ccc(Cl)cc2F)c1 [Compound I-526]
- IC50 [2]: < 100 nM

SMILES: COc1cc(CC(=O)Nc2nc(-c3sc(C)nc3C)cs2)cc(C(=O)NC(C)(C)C(F)(F)F)c1 [Compound I-528]
- IC50 [2]: < 100 nM

SMILES: Cc1nc(C)c(-c2csc(NC(=O)C3CN(c4cnc(C(F)(F)F)cn4)C3)n2)s1 [Compound I-534]
- IC50 [2]: < 100 nM

SMILES: Cc1nc(C)c(-c2nc(NC(=O)Cc3c(F)cccc3F)sc2C2=CCCCC2)s1 [Compound I-537]
- IC50 [2]: 1000 to 8000 nM

SMILES: Cc1nc(C)c(-c2nc(NC(=O)Cc3c(F)cccc3F)sc2-c2ccsc2)s1 [Compound I-538]
- IC50 [2]: 1000 to 8000 nM

SMILES: CCOC(=O)c1nc(C)sc1-c1csc(NC(=O)Cc2c(F)cccc2F)n1 [Compound I-539]
- IC50 [2]: < 100 nM
